One data set concerns P450 2D6. The note with it: cited from earlier work.
The next data set concerns P450 1A2. Particulars: cited from earlier work.
A short description of data set [1]: Clinical interaction, theophylline with tacrine. The format is in vivo, human. Particulars: single 158-mg theophylline with repeated 20-mg tacrine. The source says: M. E. Campbell, D. M. Grant, T. Inaba, and W. Kalow, "Biotransformation of Caffeine, Paraxanthine, Theophylline, and Theobromine by polycyclic Aromatic Hydrocarbon-Inducible Cytochrome(s) P-450 in Human Liver Microsomes", DRUG METAB. DISPOS. Vol. 15, pp. 237-249 (1987). Therefore, a potential explanation for the theophylline-tacrine clinical interaction is competition for the same P450 1A2 enzymes.

Molecules are shown by their SMILES.

With `C=C[C@H]1C[N@@]2CC[C@H]1C[C@@H]2[C@@H](O)c1ccnc2ccc(OC)cc12` [Quinidine], the “P450 2D6 inhibition” value in the data set with P450 2D6 was “inhibitor of P450 2D6”. On to `Cn1c(=O)c2[nH]cnc2n(C)c1=O` [Theophylline], for which, in the data set with P450 1A2, the “major route of clearance” value was “metabolism by P450 1A2”. The “increase in theophylline elimination half-life” value in data set [1] is given as “two-fold”.

The record behind these values is patent US5422350A, “Nitrogen substituted acridine and cytochrome P450 inhibitors and methods of use” (priority 1992, dated 1995).
